Measured values taken from PubChem BioAssay AID190 (DTP/NCI, 2004).
Values joined by “and” are separate entries in the source; they are usually repeats but may differ in a detail not shown here. Equal entries are not always repeated. Inconclusive results and toxic doses are left out.

System: AKR/Lw mice, AKR lymphoma ip, median survival T/C
Test: NCI In Vivo Anticancer Drug Screen. Data for tumor model Lymphoma AKR (Transplanted) (intraperitoneal) in AKR/Lw mice
Settings: endpoint: median survival time, higher = longer survival
Procedure: The antitumor activity of compounds was measured in mice bearing transplantable tumors. Survival or tumor size were measured and the results are expressed as the measurement made in the treated group (T) divided by the measurement made in the vehicle treated control group (C). The tumor model used in this assay is Lymphoma AKR (Transplanted) (intraperitoneal) in AKR/Lw mice

[1] = dose: 25.0 mg/kg/injection, schedule: Q01DX001 (ip), vehicle: saline
[2] = dose: 50.0 mg/kg/injection, schedule: Q01DX001 (ip), vehicle: saline
[3] = dose: 100.0 mg/kg/injection, schedule: Q01DX001 (ip), vehicle: saline
[4] = dose: 200.0 mg/kg/injection, schedule: Q01DX001 (ip), vehicle: saline
[5] = dose: 5.0 mg/kg/injection, schedule: Q01DX009 (ip), vehicle: saline
[6] = dose: 10.0 mg/kg/injection, schedule: Q01DX009 (ip), vehicle: saline
[7] = dose: 12.5 mg/kg/injection, schedule: Q04DX003 (ip), vehicle: saline
[8] = dose: 25.0 mg/kg/injection, schedule: Q04DX003 (ip), vehicle: saline
[9] = dose: 150.0 mg/kg/injection, schedule: Q04DX003 (ip), vehicle: saline
[10] = dose: 100.0 mg/kg/injection, schedule: Q01DX001 (ip), vehicle: Klucel (hydroxypropylcellulose) (HPC)
[11] = dose: 200.0 mg/kg/injection, schedule: Q01DX001 (ip), vehicle: Klucel (hydroxypropylcellulose) (HPC)
[12] = dose: 400.0 mg/kg/injection, schedule: Q01DX001 (ip), vehicle: Klucel (hydroxypropylcellulose) (HPC)
[13] = dose: 100.0 mg/kg/injection, schedule: Q04DX003 (ip), vehicle: saline

With `O=NN(CCCl)C(=O)NC1CCCCC1` the T/C (dose: 2.0 mg/kg/injection, schedule: Q04DX003 (ip), vehicle: Klucel (hydroxypropylcellulose) (HPC)) was 102 % of control, the T/C (dose: 2.5 mg/kg/injection, schedule: Q01DX001 (ip), vehicle: Klucel (hydroxypropylcellulose) (HPC)) was 109 % of control and the T/C (dose: 4.4 mg/kg/injection, schedule: Q04DX003 (ip), vehicle: Klucel (hydroxypropylcellulose) (HPC)) was 106 % of control. For the same compound, the T/C (dose: 5.0 mg/kg/injection, schedule: Q01DX001 (ip), vehicle: Klucel (hydroxypropylcellulose) (HPC)) was 111 % of control, the T/C (dose: 5.0 mg/kg/injection, schedule: Q04DX004 (ip), vehicle: Klucel (hydroxypropylcellulose) (HPC)) was 100 % of control and the T/C (dose: 6.25 mg/kg/injection, schedule: Q07DX003 (ip), vehicle: saline) was 109 % of control. The T/C (dose: 6.7 mg/kg/injection, schedule: Q04DX003 (ip), vehicle: Klucel (hydroxypropylcellulose) (HPC)) was 122 % of control, the T/C (dose: 7.0 mg/kg/injection, schedule: Q01DX001 (ip), vehicle: Klucel (hydroxypropylcellulose) (HPC)) was 165 % of control and the T/C (dose: 10.0 mg/kg/injection, schedule: Q04DX003 (ip), vehicle: Klucel (hydroxypropylcellulose) (HPC)) was 115 % of control. The T/C (dose: 10.0 mg/kg/injection, schedule: Q04DX004 (ip), vehicle: Klucel (hydroxypropylcellulose) (HPC)) was 100 % of control, the T/C (dose: 12.5 mg/kg/injection, schedule: Q07DX003 (ip), vehicle: saline) was 96 % of control and 115 % of control and 118 % of control and the T/C (dose: 25.0 mg/kg/injection, schedule: Q01DX001 (ip), vehicle: saline with Tween-80) was 159 % of control. For the same compound, the T/C [1] was 106 % of control and 115 % of control, the T/C (dose: 25.0 mg/kg/injection, schedule: Q07DX003 (ip), vehicle: saline) was 106 % of control and 109 % of control and the T/C (dose: 50.0 mg/kg/injection, schedule: Q01DX001 (ip), vehicle: saline with Tween-80) was 365 % of control. The T/C [2] was 115 % of control and the T/C (dose: 100.0 mg/kg/injection, schedule: Q01DX001 (ip), vehicle: saline with Tween-80) was 218 % of control.

`ClC1=C(Cl)C2(Cl)C(COc3ccc(Cl)cc3)CC1(Cl)C2(Cl)Cl` (stereo not drawn) was tested, and the T/C [3] was 94 % of control, the T/C [4] was 88 % of control and the T/C (dose: 400.0 mg/kg/injection, schedule: Q01DX001 (ip), vehicle: saline) was 91 % of control.

For `CC(CN1CC(=O)NC(=O)C1)N1CC(=O)NC(=O)C1` (stereo not drawn), the T/C (dose: 0.5 mg/kg/injection, schedule: Q01DX009 (ip), vehicle: saline) was 103 % of control, the T/C (dose: 1.6 mg/kg/injection, schedule: Q01DX009 (ip), vehicle: saline) was 116 % of control and the T/C (dose: 2.0 mg/kg/injection, schedule: Q01DX009 (ip), vehicle: saline) was 109 % of control. The T/C (dose: 2.5 mg/kg/injection, schedule: Q01DX009 (ip), vehicle: saline) was 90 % of control, the T/C (dose: 3.1 mg/kg/injection, schedule: Q01DX009 (ip), vehicle: saline) was 110 % of control and 113 % of control and the T/C (dose: 4.0 mg/kg/injection, schedule: Q01DX009 (ip), vehicle: saline) was 181 % of control. For the same compound, the T/C [5] was 106 % of control, the T/C [6] was 120 % of control and the T/C [7] was 88 % of control and 90 % of control. For the same compound, the T/C (dose: 20.0 mg/kg/injection, schedule: Q01DX009 (ip), vehicle: saline) was 150 % of control, the T/C [1] was 94 % of control and the T/C [8] was 105 % of control and 107 % of control. For the same compound, the T/C (dose: 30.0 mg/kg/injection, schedule: Q01DX009 (ip), vehicle: saline) was 152 % of control, the T/C (dose: 35.0 mg/kg/injection, schedule: Q01DX009 (ip), vehicle: saline) was 152 % of control and the T/C [2] was 97 % of control and 106 % of control. The T/C (dose: 50.0 mg/kg/injection, schedule: Q04DX003 (ip), vehicle: saline) was 92 % of control and 100 % of control, the T/C (dose: 75.0 mg/kg/injection, schedule: Q04DX003 (ip), vehicle: saline) was 94 % of control and the T/C (dose: 150.0 mg/kg/injection, schedule: Q01DX001 (ip), vehicle: water) was 108 % of control. The T/C [9] was 123 % of control, the T/C (dose: 200.0 mg/kg/injection, schedule: Q01DX009 (ip), vehicle: saline) was 108 % of control and the T/C (dose: 300.0 mg/kg/injection, schedule: Q01DX009 (ip), vehicle: saline) was 106 % of control. For the same compound, the T/C (dose: 300.0 mg/kg/injection, schedule: Q04DX003 (ip), vehicle: saline) was 100 % of control, the T/C (dose: 400.0 mg/kg/injection, schedule: Q01DX009 (ip), vehicle: saline) was 100 % of control and the T/C (dose: 600.0 mg/kg/injection, schedule: Q01DX001 (ip), vehicle: water) was 111 % of control.

With `O=c1cc(-c2ccccc2)nc(Nc2nc3ccc([N+](=O)[O-])cc3[nH]2)[nH]1` the T/C [10] was 96 % of control, the T/C [11] was 110 % of control and the T/C [12] was 96 % of control.

In the case of `O=c1[nH]c(=O)n(C2CC(O)C(CO)O2)cc1F` (stereo not drawn), the T/C (dose: 3.1 mg/kg/injection, schedule: Q04DX003 (ip), vehicle: saline) is reported as 100 % of control, the T/C [5] is reported as 100 % of control and the T/C (dose: 6.2 mg/kg/injection, schedule: Q04DX003 (ip), vehicle: saline) is reported as 92 % of control. For the same compound, the T/C (dose: 6.25 mg/kg/injection, schedule: Q01DX009 (ip), vehicle: saline) was 104 % of control, the T/C [6] was 106 % of control and the T/C (dose: 11.0 mg/kg/injection, schedule: Q01DX015 (ip), vehicle: saline) was 86 % of control. For the same compound, the T/C (dose: 12.5 mg/kg/injection, schedule: Q01DX015 (ip), vehicle: saline) was 117 % of control, the T/C [7] was 94 % of control and 102 % of control and the T/C (dose: 15.0 mg/kg/injection, schedule: Q01DX009 (ip), vehicle: saline) was 102 % of control and 123 % of control. For the same compound, the T/C (dose: 16.5 mg/kg/injection, schedule: Q01DX015 (ip), vehicle: saline) was 86 % of control, the T/C (dose: 25.0 mg/kg/injection, schedule: Q01DX015 (ip), vehicle: saline) was 113 % of control and the T/C [8] was 90 % of control and 97 % of control. For the same compound, the T/C (dose: 40.0 mg/kg/injection, schedule: Q01DX015 (ip), vehicle: saline) was 86 % of control, the T/C (dose: 50.0 mg/kg/injection, schedule: Q01DX015 (ip), vehicle: saline) was 114 % of control and 121 % of control and the T/C (dose: 60.0 mg/kg/injection, schedule: Q01DX001 (ip), vehicle: saline) was 111 % of control. For the same compound, the T/C (dose: 60.0 mg/kg/injection, schedule: Q01DX009 (ip), vehicle: saline) was 112 % of control and 117 % of control, the T/C (dose: 75.0 mg/kg/injection, schedule: Q01DX009 (ip), vehicle: saline) was 115 % of control and the T/C [3] was 95 % of control and 97 % of control. The T/C [13] was 86 % of control and 90 % of control and 104 % of control, the T/C (dose: 120.0 mg/kg/injection, schedule: Q01DX001 (ip), vehicle: saline) was 107 % of control and the T/C (dose: 150.0 mg/kg/injection, schedule: Q01DX001 (ip), vehicle: saline) was 105 % of control and 110 % of control and 116 % of control. For the same compound, the T/C [9] was 123 % of control, the T/C [4] was 104 % of control and 105 % of control and 119 % of control and the T/C (dose: 250.0 mg/kg/injection, schedule: Q04DX003 (ip), vehicle: saline) was 150 % of control.

With `O=C1CCSCCN1` the T/C [3] was 95 % of control and the T/C [4] was 86 % of control.

`O=C1c2ccccc2-c2ncccc21` was tested, and the T/C [10] was 100 % of control, the T/C [11] was 120 % of control and the T/C [12] was 93 % of control.

In the case of `COc1ccc(N2CSC(=S)N(c3ccc(OC)cc3)C2)cc1`, the T/C [10] is reported as 88 % of control, the T/C [11] is reported as 88 % of control and the T/C [12] is reported as 92 % of control.

With `COc1cc2c(c3c1c(=O)c1ccccc1n3C)C=CC(C)(C)O2` the T/C (dose: 16.0 mg/kg/injection, schedule: Q01DX010 (ip), vehicle: Klucel (hydroxypropylcellulose) (HPC)) was 106 % of control, the T/C (dose: 31.25 mg/kg/injection, schedule: Q01DX010 (ip), vehicle: Klucel (hydroxypropylcellulose) (HPC)) was 103 % of control and the T/C (dose: 36.0 mg/kg/injection, schedule: Q03HX024 (ip), vehicle: Klucel (hydroxypropylcellulose) (HPC)) was 120 % of control. The T/C (dose: 62.5 mg/kg/injection, schedule: Q01DX010 (ip), vehicle: Klucel (hydroxypropylcellulose) (HPC)) was 122 % of control, the T/C (dose: 62.5 mg/kg/injection, schedule: Q03HX024 (ip), vehicle: Klucel (hydroxypropylcellulose) (HPC)) was 115 % of control and the T/C (dose: 125.0 mg/kg/injection, schedule: Q03HX024 (ip), vehicle: Klucel (hydroxypropylcellulose) (HPC)) was 115 % of control. For the same compound, the T/C (dose: 360.0 mg/kg/injection, schedule: Q04DX003 (ip), vehicle: Klucel (hydroxypropylcellulose) (HPC)) was 122 % of control.

In the case of `Clc1nnc(Nc2ccccc2)c2ccccc12`, the T/C (dose: 25.0 mg/kg/injection, schedule: Q04DX003 (ip), vehicle: Klucel (hydroxypropylcellulose) (HPC)) is reported as 86 % of control, the T/C (dose: 50.0 mg/kg/injection, schedule: Q04DX003 (ip), vehicle: Klucel (hydroxypropylcellulose) (HPC)) is reported as 98 % of control and the T/C [10] is reported as 92 % of control. The T/C (dose: 100.0 mg/kg/injection, schedule: Q04DX003 (ip), vehicle: Klucel (hydroxypropylcellulose) (HPC)) was 92 % of control, the T/C [13] was 100 % of control and the T/C [11] was 96 % of control. The T/C [12] was 96 % of control.
